{"source": "patent US20130261066A1", "about": "“TREATMENT OF INFLAMMATORY BOWEL DISEASES USING A TRIPEPTIDE” (THE RESEARCH FOUNDATION OF STATE UNIVERSITY OF NEW YORK, priority 2010, published 2013)", "type_in_all_cases": "in vivo", "key": {"[1]": {"test_system": "DSS-induced colitis", "experiment": "DSS-induced colitis in mice, MC-12 5 or 25 mg/kg ip or po (Example 4)", "conditions": "for reduction of histological score compared to DSS control: p<0.01", "method": "Female C57BL/6 and SJL/J mice (Taconic, Hudson, N.Y.), 7-9 weeks old, were kept under controlled temperature (25° C.) with a 12/12-hour light-dark cycle and free access to standard diet and drinking water. The mice were allowed to acclimate for 7 days before the start of experiments.\nThe mice received 2% dextran sulfate sodium (DSS, MW 36,000 to 50,000, MP Biomedicals, Solon, Ohio) in drinking water for 8 days; control mice received regular drinking water. During the period when DSS was administered, treated mice were given MC-12 at 5 or 25 mg/kg intraperitoneally (ip) whereas the control group was given saline ip. As above, the mice were weighed and monitored for rectal bleeding or prolapse daily. All mice were euthanized at the end of the study period. Blood samples were collected and colons were dissected and their length was measured. The middle part of colon was fixed in 4% neutralized formalin and the rest was frozen for molecular analyses. Paraffin-embedded tissue sections were stained and scored as above.\n(§1) The fixed colon was cut into six equal fragments, dehydrated and embedded into paraffin. The tissue sections were stained with hematoxylin and eosin (H&E). The histological score was determined by two pathologists as described, based on the degree (0-3) and extent (0-3) of inflammation, crypt damage (0-4) and the area involved (0-4). The scores of each of the first three parameters were multiplied by the fourth and the sum of these three multiples was the final score (ranging from 0 to 40)."}, "[2]": {"test_system": "TNBS-induced colitis", "experiment": "TNBS-induced colitis (experimental Crohn's disease) in SJL/J mice", "method": "TNBS (2,4,6-trinitro benzene sulfonic acid) induces a form of colitis in SJL/J mice that recapitulates Crohn's disease. The optimal dose of TNBS was determined to be 100 μl of a 2.5% ethanolic solution instilled intracolonically. SJL mice received 2.5% TNBS solution in 50% ethanol by intra-colonic instillation using a 3.5 F catheter, which was inserted 4 cm into the colon under mild ketamine/xylazine anesthesia. Mice received MC-12 25 mg/kg or vehicle ip twice a day for two days. Body weight was monitored daily and mice were euthanized on the third day when blood and colon tissues were collected as described above for further analysis.\nas §1"}, "[3]": {"test_system": "myeloperoxidase (MPO)", "experiment": "Myeloperoxidase activity in colon tissue of DSS-treated mice", "method": "To further assess the effect of MC12 on the inflammatory changes associated with DSS induced colitis, myeloperoxidase (MPO) activity and cytosolic phospholipase A2 (cPLA2) in tissue samples was determined.\nMPO activity is an indicator of the degree of acute inflammation in a given tissue. MPO activity was measured using a commercial kit and following the instructions of the manufacturer (Invitrogen, Eugene, Oreg.). Briefly, a portion of colon tissue was homogenized in PBS and centrifuged at 10,000×g for 15 min and 50 μl of supernatant from each sample were added into a 96-well microplate. 50 μl of 2×APF working solution was added to all sample and standard wells and the plate was incubated at room temperature for 30 min. The reaction was stopped by adding 10 μl of 10× chlorination inhibitor. The fluorescence intensity was measured using a Multiplate Reader (Molecular Devices) at excitation at 485 nm, emission at 530 nm.\nTo assess the effect of MC-12 on the inflammatory changes associated with DSS-induced colitis, myeloperoxidase activity in tissue samples was determined as above."}, "[4]": {"test_system": "cytosolic phospholipase A2 (cPLA2)", "experiment": "cPLA2 activity in colon tissue of DSS-treated mice", "from_the_text": "cPLA2 enzymes release fatty acids from the second carbon group of glycerol. This particular phospholipase specifically recognizes the sn-2 acyl bond of phospholipids and catalytically hydrolyzes the bond releasing a lysopospholipid and arachidonic acid; the latter is then modified by cyclooxygenases into active compounds called eicosanoids by cyclooxygenases. Eicosanoids include prostaglandins and leukotrienes which are categorized as inflammatory mediators. […] Treatment with MC12 decreased cPLA2 activity by 18% at 40 μg and 26% at the dose of 80 μg (p<0.05).\nWe also determined the activity of cytosolic phospholipase A2 (cPLA2) in colonic tissues from study mice. cPLA2s are enzymes that release fatty acids from the second carbon group of glycerol. This particular […] specifically recognizes the sn-2 acyl bond of phospholipids and catalytically hydrolyzes the bond releasing arachidonic acid and lysophospholipids, which are then modified into active compounds called eicosanoids by cyclooxygenases. Eicosanoids include prostaglandins and leukotrienes which are categorized as inflammatory mediators.\nA cPLA2 assay kit (Cayman, Ann Arbor, Mich.) was used to determine cPLA2 activity following the instructions of the manufacturer. Briefly, a portion of colon tissue was homogenized in cold PBS and centrifuged at 10,000×g for 15 minutes and 10 μl of supernatant from each sample and 5 μl assay buffer were added into a 96-well microplate. The reaction was initialized by adding 200 μl substrate solutions to all wells and incubating for 5 min at room temperature. The fluorescence intensity was measured using a Multiplate Reader (Molecular Devices) at excitation at 485 nm, emission at 530 nm."}, "[5]": {"test_system": "DSS-induced colitis", "experiment": "DSS-induced colitis in mice, MC-12 5 or 25 mg/kg ip or po (Example 4)", "conditions": "for reduction of histological score compared to DSS control: p<0.01", "remark": "listed apart in the source"}}}
{"substance": "Gln-Ala-Trp (QAW) [MC12]", "values": [{"measurement": "reduction of histological score compared to DSS control", "setting": "[1]; 5 mg/kg ip", "result": 48.9, "unit": "%"}, {"measurement": "DSS-induced colonic inflammation (H&E histology)", "setting": "[1]; 25 mg/kg ip", "result": "significantly decreased DSS-induced colonic inflammation"}, {"measurement": "reduction of histological score compared to DSS control", "setting": "[1]; 25 mg/kg ip", "result": 66.8, "unit": "%"}, {"measurement": "weight loss", "setting": "[1]; 2% DSS 8 days, MC-12 5 or 25 mg/kg", "result": "prevented such weight loss in a dose-dependent manner"}, {"measurement": "colon length (DSS-induced reduction)", "setting": "[1]; 2% DSS 8 days, MC-12 5 or 25 mg/kg, ip and po", "result": "prevented this reduction in colon length in a dose-dependent manner"}, {"measurement": "prevention of weight loss, ip compared to po", "setting": "[1]; 2% DSS 8 days, ip vs po", "result": "more effective in preventing weight loss when given ip compared to po"}, {"measurement": "inflammatory cell infiltration and crypt loss (histology)", "setting": "[2]; 25 mg/kg bid for 2 d", "result": "decreased the inflammatory cell infiltration and crypt loss"}, {"measurement": "TNBS-caused shortening of colon length", "setting": "[2]; 25 mg/kg ip bid 2 d", "result": "did not prevent this effect"}, {"measurement": "reduction of body weight on day 3 compared to baseline", "setting": "[2]; 25 mg/kg ip bid 2 d, TNBS alone 18.2%", "result": 15.3, "unit": "%"}, {"measurement": "histological score (mean±SEM)", "setting": "[2]; 25 mg/kg ip bid 2 d, TNBS control 38.3±1.7, scale 0 to 40", "result": "23.3±3.3"}, {"measurement": "reduction of histological score compared to TNBS control", "setting": "[2]; 25 mg/kg ip bid 2 d, p<0.01", "result": 39.1, "unit": "%"}, {"measurement": "prevention of weight loss", "setting": "[2]; 25 mg/kg ip twice a day for two days", "result": "did not prevent weight loss"}, {"measurement": "MPO activity", "setting": "[3]; MC12 80 μg dose", "result": "essentially normalized"}, {"measurement": "MPO activity", "setting": "[3]; MC12 40 or 80 μg", "result": "significant (p<0.01) and concentration-dependent reduction in MPO activity"}, {"measurement": "MPO activity", "setting": "[3]; MC-12 25 mg/kg", "result": "essentially normalized"}, {"measurement": "MPO activity", "setting": "[3]; MC-12 5 or 25 mg/kg", "result": "significant (p<0.01) and concentration-dependent reduction in MPO activity"}, {"measurement": "decrease of cPLA2 activity", "setting": "[4]; MC12 40 μg", "result": 18, "unit": "%"}, {"measurement": "decrease of cPLA2 activity", "setting": "[4]; MC12 80 μg, p<0.05", "result": 26, "unit": "%"}, {"measurement": "decrease of cPLA2 activity", "setting": "[4]; MC-12 5 mg/kg", "result": 18, "unit": "%"}, {"measurement": "decrease of cPLA2 activity", "setting": "[4]; MC-12 25 mg/kg, p<0.05", "result": 24, "unit": "%"}, {"measurement": "reduction of histological score compared to DSS control", "setting": "[5]; 5 mg/kg po", "result": 50.2, "unit": "%"}, {"measurement": "DSS-induced colonic inflammation (H&E histology)", "setting": "[5]; 25 mg/kg orally", "result": "also decreased DSS-induced colonic inflammation"}, {"measurement": "reduction of histological score compared to DSS control", "setting": "[5]; 25 mg/kg po", "result": 48.4, "unit": "%"}, {"measurement": "increase in weight compared to baseline", "setting": "[5]; highest ip dose 500 μg/day, day 8", "result": 7.7, "unit": "%"}]}
